Reference: publication PMC8876959, “Comparative Evaluation of Radiochemical and Biological Properties of ^131I- and [^99mTc]Tc(CO)3-Labeled RGD Analogues Planned to Interact with the αvβ3 Integrin Expressed in Glioblastoma” (Pharmaceuticals, 2022)
Non-standard residues stand in square brackets, D forms with d. Residues, ends and D or L forms follow the SMILES beside them. Tyr(3,5-I2) = N[C@@H](Cc1cc(I)c(O)c(I)c1)C(=O)O

## CC(C)[C@H](NC(=O)[C@H](Cc1cc(I)c(O)c(I)c1)NC(=O)[C@H](CC(=O)O)NC(=O)CNC(=O)[C@H](CCCNC(=N)N)NC(=O)CN)C(=O)O [[^131I]I-GRGDYV] (H-GRGD[Tyr(3,5-I2)]V-OH)
  Radiochemical purity in human serum up to 24 h: > 94%
